# “Also recorded” adds a separate entry of the source. Read-outs that look alike come from different tables or passages of the source.
# Columns and labels:
# Format in all cases: in vitro ADME
# CYP2A6 = target: T1, CYP2A6 (Homo sapiens, UniProt P11509); test: CYP2A6 inhibition, coumarin 7-hydroxylation in human liver microsomes; conditions: for Potential for Time-Dep. Inhibition: comparison with and without 30-minute pre-incubation; for inhibition at 5 min, 100 µM: human, pH 7.4, probe coumarin (7-hydroxylation)
# T1 construct: Pooled human liver microsomes (from sixteen individuals) were used as the source of enzymes; tissue XenoTech, LLC; host or cells: human liver microsomes, pool of sixteen donors
# T1 sequence (P11509 1-494): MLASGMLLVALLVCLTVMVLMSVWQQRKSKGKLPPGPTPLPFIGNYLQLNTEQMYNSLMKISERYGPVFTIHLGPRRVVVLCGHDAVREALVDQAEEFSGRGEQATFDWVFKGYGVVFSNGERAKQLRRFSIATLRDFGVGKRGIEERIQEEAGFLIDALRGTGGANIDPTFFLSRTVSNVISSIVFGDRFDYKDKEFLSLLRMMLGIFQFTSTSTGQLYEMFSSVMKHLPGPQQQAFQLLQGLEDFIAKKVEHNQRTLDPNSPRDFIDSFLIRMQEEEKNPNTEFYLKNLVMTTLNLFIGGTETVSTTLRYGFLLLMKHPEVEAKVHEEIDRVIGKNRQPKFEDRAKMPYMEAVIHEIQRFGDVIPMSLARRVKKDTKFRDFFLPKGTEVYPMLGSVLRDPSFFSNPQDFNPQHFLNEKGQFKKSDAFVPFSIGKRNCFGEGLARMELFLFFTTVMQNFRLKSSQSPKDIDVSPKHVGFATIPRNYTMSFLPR
# Experimental: (§1) The basis for many of the following incubation conditions is described in the following references: Madan, et al., 2002,^(1) Huang, 2004,^(3) Ogilvie, et al., 2006,^(6) Pearce, et al., 1996,^(7) Tucker, et al., 2001,^(4) and Walsky and Obach, 2004.^(5) In general, incubations were conducted at approximately 37° C. in 400-μL incubation mixtures (target pH 7.4) containing high purity water, potassium phosphate buffer (50 mM), MgCl2 (3 mM), EDTA (1 mM), an NADPH-generating system [always the mixture of the following: NADP (1 mM), glucose-6-phosphate (5 mM), glucose-6-phosphate dehydrogenase (1 Unit/mL)], and marker substrate at the final concentrations indicated. Pooled human liver microsomes (from sixteen individuals) were used as the source of enzymes (Section 1.3.1.2). The concentrations of marker substrates were based on the Km and Vmax data that were determined previously (data not shown).
# (§2) Due to the possibility that boceprevir may bind to microsomal protein or lipids, an attempt was made to design these experiments such that, in as many cases as possible, the microsomal protein, incubation time, and phosphate buffer concentration were 0.1 mg/mL, 5 minutes and 50 mM, respectively, for assays performed with human liver microsomes (Table 1). […] Since it is not imperative that the concentration of marker substrates be exactly equal to Km, the marker substrate concentrations were rounded up or down, as applicable, to simplify the experimental design (data not shown). […] Thus, the final incubation concentration of phenacetin was 60 μM (Table 1).
# (§3) The ability of boceprevir to inhibit the CYP enzymes listed in Section 1.2.1 was investigated with a pool of sixteen individual human liver microsomal samples at the concentrations indicated in Table 1. Aliquots of the stock and/or working solutions of boceprevir were manually added to buffer mixtures containing the components described in Section 1.3.21. Incubation mixtures were prepared in bulk to obviate the need for directly pipetting very small volumes (i.e., 1 μL or less). Incubations containing no boceprevir (0 μM) contained the vehicle used to dissolve boceprevir (i.e., 1% methanol).
# (§4) The Tecan liquid handling system conducted all remaining incubation steps, with the exception of the centrifugation. Aliquots of the buffer mixtures were then automatically added to 96-well plates at the appropriate locations in duplicate. Aliquots of a substrate working solution were added to the 96-well plates, prior to initiating reactions, to give the final concentrations indicated in Table 1. Reactions were initiated with the addition of an aliquot of an NADPH-generating system. Reactions were automatically terminated at approximately 5 minutes, by the addition of the appropriate internal standard (Table 5) and stop reagent; acetonitrile. Precipitated protein was removed by centrifugation (920 g for 10 minutes at 10° C.). Standards and quality control samples were similarly prepared with the addition of authentic metabolite standards.
# (§5) To examine its ability to act as a time-dependent inhibitor, boceprevir (at the same concentrations used to evaluate direct inhibition) was pre-incubated at 37±1° C., in duplicate, with human liver microsomes and an NADPH-generating system for approximately 30 minutes. This pre-incubation allowed for the generation of intermediates that could inhibit human CYP enzymes. The pre-incubations were initiated with the addition of an aliquot of an NADPH-generating system. […] Reactions were automatically terminated, at approximately 5 minutes, by the addition of the appropriate internal standard (Table 5) and stop reagent; acetonitrile. Precipitated protein was removed by centrifugation (920 g for 10 minutes at 10° C.). Incubations containing no boceprevir (0 μM) and incubations that contained boceprevir but were not pre-incubated, served as negative controls.
# CYP2C8 = target: T2, CYP2C8 (Homo sapiens, UniProt P10632); test: CYP2C8 inhibition, amodiaquine N-dealkylation in human liver microsomes; conditions: for Potential for Time-Dep. Inhibition: comparison with and without 30-minute pre-incubation
# T2 construct: Pooled human liver microsomes (from sixteen individuals) were used as the source of enzymes; tissue XenoTech, LLC; host or cells: human liver microsomes, pool of sixteen donors
# T2 sequence (P10632 1-490): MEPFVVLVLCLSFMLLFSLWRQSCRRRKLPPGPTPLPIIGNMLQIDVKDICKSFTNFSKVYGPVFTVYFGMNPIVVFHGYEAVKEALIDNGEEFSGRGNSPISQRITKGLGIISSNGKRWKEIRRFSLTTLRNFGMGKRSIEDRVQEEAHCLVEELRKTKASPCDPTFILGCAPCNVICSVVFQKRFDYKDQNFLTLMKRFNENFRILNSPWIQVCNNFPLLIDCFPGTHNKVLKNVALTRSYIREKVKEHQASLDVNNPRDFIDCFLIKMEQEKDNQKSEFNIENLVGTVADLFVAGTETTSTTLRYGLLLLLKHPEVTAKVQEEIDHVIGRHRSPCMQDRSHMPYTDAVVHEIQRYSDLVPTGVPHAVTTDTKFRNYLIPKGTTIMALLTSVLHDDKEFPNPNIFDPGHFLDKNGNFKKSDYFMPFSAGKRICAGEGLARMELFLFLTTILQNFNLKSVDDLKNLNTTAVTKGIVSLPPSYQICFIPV
# Experimental: as §1, §2, §3, §4
# To examine its ability to act as a time-dependent inhibitor, boceprevir (at the same concentrations used to evaluate direct inhibition) was pre-incubated at 37±1° C., in duplicate, with human liver microsomes and an NADPH-generating system for approximately 30 minutes. This pre-incubation allowed for the generation of intermediates that could inhibit human CYP enzymes. The pre-incubations were initiated with the addition of an aliquot of an NADPH-generating system. […]
# CYP2D6 = target: T3, CYP2D6 (Homo sapiens, UniProt P10635); test: CYP2D6 inhibition, dextromethorphan O-demethylation in human liver microsomes; conditions: for Potential for Time-Dep. Inhibition: comparison with and without 30-minute pre-incubation; for inhibition at 5 min, 100 µM: human, pH 7.4, probe dextromethorphan (O-demethylation)
# T3 construct: Pooled human liver microsomes (from sixteen individuals) were used as the source of enzymes; tissue XenoTech, LLC; host or cells: human liver microsomes, pool of sixteen donors
# Experimental: as §1, §2, §3, §4, §5
# CYP3A4/5 = CYP3A4/5 inhibition, midazolam 1′-hydroxylation in human liver microsomes (IC50 and Ki); conditions: for Potential for Time-Dep. Inhibition: comparison with and without 30-minute pre-incubation
# Experimental: as §1, §2, §3, §4, §5
# [1] = direct inhibition, zero-minute pre-incubation, pooled human liver microsomes
# [2] = pooled human liver microsomes, direct inhibition, zero-minute pre-incubation, read-out: Max. Inhib. at 100 μM
# [3] = pooled human liver microsomes, time-dependent inhibition, 30-minute pre-incubation, read-out: Maximum Inhibition at 100 μM
# [4] = time-dependent inhibition, 30-minute pre-incubation
# T3 sequence (P10635 whole entry): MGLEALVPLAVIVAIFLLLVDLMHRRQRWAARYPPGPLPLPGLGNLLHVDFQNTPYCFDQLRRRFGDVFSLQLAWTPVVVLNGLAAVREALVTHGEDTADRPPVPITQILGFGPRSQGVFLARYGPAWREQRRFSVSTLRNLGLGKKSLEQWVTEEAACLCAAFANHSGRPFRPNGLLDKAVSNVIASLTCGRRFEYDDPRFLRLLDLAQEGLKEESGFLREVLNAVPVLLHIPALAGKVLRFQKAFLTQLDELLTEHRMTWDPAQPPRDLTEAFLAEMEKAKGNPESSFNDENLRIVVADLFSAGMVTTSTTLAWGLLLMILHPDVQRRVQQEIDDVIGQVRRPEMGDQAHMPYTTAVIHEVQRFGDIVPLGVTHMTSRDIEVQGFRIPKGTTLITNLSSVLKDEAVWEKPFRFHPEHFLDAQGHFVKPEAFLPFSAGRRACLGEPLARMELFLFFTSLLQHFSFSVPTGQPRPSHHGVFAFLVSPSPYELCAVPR
structure (smiles),measurement,setting,value
"CC(C)(C)NC(=O)NC(C(=O)N1CC2C([C@H]1C(=O)NC(CC1CCC1)C(=O)C(N)=O)C2(C)C)C(C)(C)C (stereo partly drawn) [Boceprevir, (1R,2S,5S)—N-[(2Ξ)-4-amino-1-cyclobutyl-3,4-dioxobutan-2-yl]-3-{(2S)-2-[(tert-butylcarbamoyl)amino]-3,3-dimethylbutanoyl}-6,6-dimethyl-3-azabicyclo[3.1.0]hexane-2-carboxamide]",Potential for Time-Dep. Inhibition,CYP2A6,little or no
same,Potential for Time-Dep. Inhibition,CYP2A6; listed as boceprevir,no discernable time-dependent inhibition
same,IC50,CYP2A6; [1],> 100 µM
same,"inhibition at 5 min, 100 µM",CYP2A6; [2],20%
same,"inhibition at 5 min, 100 µM",CYP2A6; [3],7.8%
same,IC50,CYP2A6; [4],> 100 µM
same,Potential for Time-Dep. Inhibition,CYP2C8,little or no
same,Potential for Time-Dep. Inhibition,CYP2C8; listed as boceprevir,no discernable time-dependent inhibition
same,IC50,CYP2C8; [1],> 100 µM
same,"inhibition at 5 min, 100 µM","CYP2C8; human, pooled human liver microsomes, pH 7.4, probe amodiaquine (N-dealkylation), direct inhibition, zero-minute pre-incubation, read-out: Max. Inhib. at 100 μM",25%
same,IC50,CYP2C8; [4],> 100 µM
same,Potential for Time-Dep. Inhibition,CYP2D6,little or no
same,Potential for Time-Dep. Inhibition,CYP2D6; listed as boceprevir,no discernable time-dependent inhibition
same,IC50,CYP2D6; [1],> 100 µM
same,"inhibition at 5 min, 100 µM",CYP2D6; [2],45%
same,"inhibition at 5 min, 100 µM",CYP2D6; [3],30%
same,IC50,CYP2D6; [4],> 100 µM
same,Potential for Time-Dep. Inhibition,CYP3A4/5,yes^c
same,Potential for Time-Dep. Inhibition,CYP3A4/5; listed as boceprevir,caused time-dependent inhibition
same,Type of Inhibition,CYP3A4/5; direct inhibition,competitive; also recorded: competit
same,Type of Inhibition,"CYP3A4/5; direct inhibition, listed as boceprevir",competitive
same,Ki at 5 min,"CYP3A4/5; human, pooled human liver microsomes, pH 7.4, probe midazolam (1′-hydroxylation), direct inhibition",7.7 µM
same,IC50 at 5 min,"CYP3A4/5; human, pooled human liver microsomes, pH 7.4, probe midazolam (1′-hydroxylation), direct inhibition, zero-minute pre-incubation",11 µM
same,"inhibition at 5 min, 100 µM","CYP3A4/5; human, pooled human liver microsomes, pH 7.4, probe midazolam (1′-hydroxylation), direct inhibition, zero-minute pre-incubation, read-out: Max. Inhib. at 100 μM",91%
same,IC50 at 5 min,"CYP3A4/5; human, pooled human liver microsomes, pH 7.4, probe midazolam (1′-hydroxylation), time-dependent inhibition, 30-minute pre-incubation",0.97 µM
same,"inhibition at 5 min, 100 µM","CYP3A4/5; human, pooled human liver microsomes, pH 7.4, probe midazolam (1′-hydroxylation), time-dependent inhibition, 30-minute pre-incubation, read-out: Maximum Inhibition at 100 μM",99%
